Experimental data reported in patent publication US12648975B2, “Lactobacillus plantarum against Helicobacter pylori infection, and use thereof” (WECARE PROBIOTICS CO., LTD., priority 2021, dated 2026).

Tests used:
Helicobacter pylori [1] = assay: Inhibition zone experiment (Oxford cup method), Example 6; type: cell-based; conditions: 100 μL sample
Procedure: In this example, an inhibitory effect of the Lactobacillus plantarum in Example 3 on the growth of Helicobacter pylori was verified. Steps are described below. • (1) Helicobacter pylori at −80° C. was taken out, coated on a Columbia blood agar medium containing 5% sheep blood (v/v) for activation and culture and cultured in a microaerobic environment for 48 h at 37° C. • (2) The Lactobacillus plantarum was inoculated in an MRS liquid medium and cultured for 18 h at 37° C. for activation two consecutive times to obtain an activation solution. The activation solution was inoculated in an MRS liquid medium at an inoculum volume of 2% (v/v) and cultured for 18 h at 37° C. to obtain a bacterial solution. The bacterial solution was centrifuged at 8000 g for 10 min, and supernatant was taken and passed through a 0.22 μm sterile filtration membrane to obtain supernatant of the Lactobacillus plantarum. […] Effects of inhibiting the growth of Helicobacter pylori at 48 h and 72 h by the Lactobacillus plantarum were determined through the Oxford cup method.

Helicobacter pylori [2] = assay: Inhibition zone experiment (Oxford cup method) of health care product, Example 9; type: cell-based; conditions: 100 μL sample
Procedure: The health care product for inhibiting Helicobacter pylori infection was prepared into a suspension (a density of Lactobacillus plantarum Lp05 was 10^9 CFU/mL) with water, 100 μL suspension was taken and coated onto a surface of a punctured Colombian blood agar medium (a volume of the medium was 20 mL) containing 5% sheep blood without an antibiotic, and any one of the following groups of liquids was added separately to form different experimental groups: 100 μL suspension of the health care product to be tested, 100 μL positive control (a metronidazole solution having a mass concentration of 0.025%), 100 μL negative control (a PBS buffer) and a blank control (100 μL MRS liquid medium). Effects of inhibiting the growth of Helicobacter pylori at 48 h and 72 h were determined through an Oxford cup method.

Compound: Cc1ncc([N+](=O)[O-])n1CCO [Positive control, metronidazole]
- Diameter of Inhibition Zone at 48 h (mm) (Helicobacter pylori [1]; 48 h of culture): 11.2 ± 2.3 mm
- Diameter of Inhibition Zone at 72 h (mm) (Helicobacter pylori [1]; 72 h of culture): 12.4 ± 3.1 mm
- Diameter of Inhibition Zone at 48 h (mm) (Helicobacter pylori [2]; 48 h of culture): 9.3 ± 2.5 mm
- Diameter of Inhibition Zone at 72 h (mm) (Helicobacter pylori [2]; 72 h of culture): 9.8 ± 2.5 mm
